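Protocol summary: plate cells (96-well), add compound at 5 concentrations, incubate 48 h, interpolate endpoints linearly. TGI: total growth inhibition.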
Tests used:
Assay in all cases: NCI tumour cell line growth inhibition, 48 h
SK-OV-3 ovarian = tested on: SK-OV-3 ovarian
SK-MEL-2 melanoma = tested on: SK-MEL-2 melanoma
MDA-MB-435 = tested on: MDA-MB-435
A549 NSCLC = tested on: A549 NSCLC
OVCAR-8 ovarian = tested on: OVCAR-8 ovarian
DU-145 prostate = tested on: DU-145 prostate
HT29 colon = tested on: HT29 colon
SF-539 CNS = tested on: SF-539 CNS
NCI-H23 lung = tested on: NCI-H23 lung
SK-MEL-5 melanoma = tested on: SK-MEL-5 melanoma
OVCAR-5 ovarian = tested on: OVCAR-5 ovarian
NCI-H522 lung = tested on: NCI-H522 lung
HCT-15 colon = tested on: HCT-15 colon
HOP-92 NSCLC = tested on: HOP-92 NSCLC
OVCAR-4 ovarian = tested on: OVCAR-4 ovarian
HCT-116 colon = tested on: HCT-116 colon
EKVX NSCLC = tested on: EKVX NSCLC
MCF7 breast = tested on: MCF7 breast
COLO 205 colon = tested on: COLO 205 colon
LOX IMVI melanoma = tested on: LOX IMVI melanoma
ACHN renal = tested on: ACHN renal
A498 renal = tested on: A498 renal
CAKI-1 renal = tested on: CAKI-1 renal
K-562 leukemia = tested on: K-562 leukemia
OVCAR-3 ovarian = tested on: OVCAR-3 ovarian
CCRF-CEM leukemia = tested on: CCRF-CEM leukemia
RXF 393 renal = tested on: RXF 393 renal
SF-268 CNS = tested on: SF-268 CNS
TK-10 renal = tested on: TK-10 renal
U251 CNS = tested on: U251 CNS
MDA-N = tested on: MDA-N
SF-295 CNS = tested on: SF-295 CNS
KM12 colon = tested on: KM12 colon
UO-31 renal = tested on: UO-31 renal
HL-60(TB) leukemia = tested on: HL-60(TB) leukemia
MOLT-4 leukemia = tested on: MOLT-4 leukemia
SW-620 colon = tested on: SW-620 colon
SK-MEL-28 melanoma = tested on: SK-MEL-28 melanoma
M14 melanoma = tested on: M14 melanoma
SN12C renal = tested on: SN12C renal
UACC-62 melanoma = tested on: UACC-62 melanoma
MALME-3M melanoma = tested on: MALME-3M melanoma
HCC-2998 colon = tested on: HCC-2998 colon
NCI/ADR-RES ovarian = tested on: NCI/ADR-RES ovarian
PC-3 prostate = tested on: PC-3 prostate
T-47D breast = tested on: T-47D breast
NCI-H226 lung = tested on: NCI-H226 lung
MDA-MB-231 breast = tested on: MDA-MB-231 breast
IGROV1 ovarian = tested on: IGROV1 ovarian
BT-549 breast = tested on: BT-549 breast
SNB-19 CNS = tested on: SNB-19 CNS
HS 578T breast = tested on: HS 578T breast
UACC-257 melanoma = tested on: UACC-257 melanoma
786-0 renal = tested on: 786-0 renal
SNB-75 CNS = tested on: SNB-75 CNS
NCI-H460 lung = tested on: NCI-H460 lung
HOP-62 NSCLC = tested on: HOP-62 NSCLC

## COc1c(-c2ccc3c(c2)OCO3)oc2cc3c(c(OC)c2c1=O)OCO3
SK-OV-3 ovarian
  TGI: 35.7 µM
SK-MEL-2 melanoma
  TGI: 56.9 µM
MDA-MB-435
  TGI: 36.2 µM
A549 NSCLC
  TGI: 54 µM
OVCAR-8 ovarian
  TGI: 42.4 µM
DU-145 prostate
  TGI: > 100 µM
HT29 colon
  TGI: > 100 µM
SF-539 CNS
  TGI: 34.8 µM
NCI-H23 lung
  TGI: 53.5 µM
SK-MEL-5 melanoma
  TGI: 35.5 µM
OVCAR-5 ovarian
  TGI: > 100 µM
NCI-H522 lung
  TGI: 52.6 µM
HCT-15 colon
  TGI: > 100 µM
HOP-92 NSCLC
  TGI: 79.6 µM
OVCAR-4 ovarian
  TGI: 70.1 µM
HCT-116 colon
  TGI: 39.3 µM
EKVX NSCLC
  TGI: 57.1 µM
MCF7 breast
  TGI: 40.6 µM
COLO 205 colon
  TGI: > 100 µM
LOX IMVI melanoma
  TGI: 32.1 µM
ACHN renal
  TGI: 63 µM
A498 renal
  TGI: 50.3 µM
CAKI-1 renal
  TGI: 62.4 µM
K-562 leukemia
  TGI: > 100 µM
OVCAR-3 ovarian
  TGI: 74.9 µM
CCRF-CEM leukemia
  TGI: > 100 µM
RXF 393 renal
  TGI: 69.8 µM
SF-268 CNS
  TGI: 44.2 µM
TK-10 renal
  TGI: 80.4 µM
U251 CNS
  TGI: 36.7 µM
MDA-N
  TGI: 44.4 µM
SF-295 CNS
  TGI: 61.8 µM
KM12 colon
  TGI: 65.1 µM
UO-31 renal
  TGI: 71 µM
HL-60(TB) leukemia
  TGI: 4.1 µM
MOLT-4 leukemia
  TGI: > 100 µM
SW-620 colon
  TGI: > 100 µM
SK-MEL-28 melanoma
  TGI: > 100 µM
M14 melanoma
  TGI: > 100 µM
SN12C renal
  TGI: 47.1 µM
UACC-62 melanoma
  TGI: 64.1 µM
MALME-3M melanoma
  TGI: 67.6 µM
HCC-2998 colon
  TGI: 87.4 µM
NCI/ADR-RES ovarian
  TGI: 85.5 µM
PC-3 prostate
  TGI: 58 µM
T-47D breast
  TGI: 36.7 µM
NCI-H226 lung
  TGI: 42.5 µM
MDA-MB-231 breast
  TGI: > 100 µM
IGROV1 ovarian
  TGI: 55.1 µM
BT-549 breast
  TGI: 46.6 µM
SNB-19 CNS
  TGI: 43.4 µM
HS 578T breast
  TGI: 93.9 µM
UACC-257 melanoma
  TGI: > 100 µM
786-0 renal
  TGI: > 100 µM
SNB-75 CNS
  TGI: 44.9 µM
NCI-H460 lung
  TGI: 28 µM
HOP-62 NSCLC
  TGI: 34.9 µM

## CCOC(=O)C1(C/C=C\CBr)CCCCCCC1=O (centres undefined)
SK-OV-3 ovarian
  TGI: > 100 µM
SK-MEL-2 melanoma
  TGI: > 100 µM
MDA-MB-435
  TGI: > 100 µM
A549 NSCLC
  TGI: > 100 µM
OVCAR-8 ovarian
  TGI: > 100 µM
DU-145 prostate
  TGI: > 100 µM
HT29 colon
  TGI: > 100 µM
SF-539 CNS
  TGI: > 100 µM
NCI-H23 lung
  TGI: > 100 µM
SK-MEL-5 melanoma
  TGI: > 100 µM
OVCAR-5 ovarian
  TGI: > 100 µM
NCI-H522 lung
  TGI: > 100 µM
HCT-15 colon
  TGI: > 100 µM
OVCAR-4 ovarian
  TGI: > 100 µM
HCT-116 colon
  TGI: > 100 µM
EKVX NSCLC
  TGI: > 100 µM
MCF7 breast
  TGI: > 100 µM
COLO 205 colon
  TGI: > 100 µM
LOX IMVI melanoma
  TGI: > 100 µM
ACHN renal
  TGI: > 100 µM
A498 renal
  TGI: > 100 µM
CAKI-1 renal
  TGI: > 100 µM
CCRF-CEM leukemia
  TGI: > 100 µM
RXF 393 renal
  TGI: > 100 µM
SF-268 CNS
  TGI: > 100 µM
TK-10 renal
  TGI: > 100 µM
U251 CNS
  TGI: > 100 µM
MDA-N
  TGI: > 100 µM
SF-295 CNS
  TGI: > 100 µM
KM12 colon
  TGI: > 100 µM
UO-31 renal
  TGI: > 100 µM
HL-60(TB) leukemia
  TGI: > 100 µM
MOLT-4 leukemia
  TGI: > 100 µM
SW-620 colon
  TGI: > 100 µM
SK-MEL-28 melanoma
  TGI: > 100 µM
M14 melanoma
  TGI: > 100 µM
SN12C renal
  TGI: > 100 µM
UACC-62 melanoma
  TGI: > 100 µM
MALME-3M melanoma
  TGI: > 100 µM
NCI/ADR-RES ovarian
  TGI: > 100 µM
PC-3 prostate
  TGI: > 100 µM
T-47D breast
  TGI: > 100 µM
NCI-H226 lung
  TGI: > 100 µM
MDA-MB-231 breast
  TGI: > 100 µM
IGROV1 ovarian
  TGI: > 100 µM
BT-549 breast
  TGI: > 100 µM
SNB-19 CNS
  TGI: > 100 µM
HS 578T breast
  TGI: > 100 µM
UACC-257 melanoma
  TGI: > 100 µM
786-0 renal
  TGI: > 100 µM
SNB-75 CNS
  TGI: > 100 µM
HOP-62 NSCLC
  TGI: > 100 µM
